Experimental data reported in a melting point compilation (Tetko et al.; mined from patent text by program, amines drawn as free bases though some values may be those of a salt).

Q: Which melting point does the source give for `CCCCCCCCCCCc1nnc2n1-c1sc(CC)cc1C(c1ccc(O)cc1)=NC2` here?
A: 164 to 166 °C

Q: For `CC(O)(CCCl)c1ccc(-c2ccc(Cl)cc2)cc1` (stereo not given), which melting point is on record?
A: 98 to 100 °C

Q: For `CC(=Cc1ccc(C(=O)O)cc1)c1cc2c(cc1C)C(C)(C)CCC2(C)C`, which melting point is on record?
A: 91 to 92 °C

Q: For `O=C(O)c1ccc(CBr)c(C(F)(F)F)c1`, which melting point is on record?
A: 136 to 140 °C

Q: Which melting point does the source give for `CNC(=O)CCc1ccc2cc(O[C@@H](C)[C@H](O)CCc3cccnc3)ccc2c1` here?
A: 68 to 70 °C

Q: With `O=C(c1ccc(F)cc1)N1CCOC(c2nc(-c3ccc(F)cc3)no2)C1` (stereo not given) as the compound, how does the melting point read?
A: 116 to 117 °C

Q: With `O=c1[nH]c2ccccc2c(=O)cc1Nc1ccccc1` as the compound, how does the melting point read?
A: 227 to 228 °C

Q: Which melting point does the source give for `CC(C)c1cc2c(cc1Oc1ccc(C(=O)O)cc1)C(C)(C)CCC2(C)C` here?
A: 205 to 206 °C

Q: Which melting point does the source give for `CC(=O)C1=C(C)CC2C3CCC4CC5OC5CC4(C)C3C(=O)CC12C` (stereo not given) here?
A: 155 to 157 °C

Q: For `CCNS(=O)(=O)c1cccc(OCc2nc3ccccc3n2C)c1`, which melting point is on record?
A: 169 to 173 °C

Q: With `CC(C)(C)NS(=O)(=O)c1cccc(NC(=O)c2cnn3c(C(F)F)cc(-c4ccc(C(F)(F)F)cc4)nc23)c1` as the compound, how does the melting point read?
A: 228 °C

Q: With `C=CCNC(=O)c1cc(CCc2cc3c(s2)-n2c(C)nnc2CN=C3c2ccccc2Cl)ccc1CC(=O)Nc1cccc(/C=C/c2nc(C3CCC3)cs2)c1` as the compound, how does the melting point read?
A: 127 to 132 °C

Q: With `CN1CCc2c(O)ccc(Cl)c2CC1` as the compound, how does the melting point read?
A: 178 to 180 °C

Q: Which melting point does the source give for `CC(C)(C)OC(=O)N[C@@H](CCC(N)=O)C(=O)N1CCN(Cc2ccccc2)CC1` here?
A: 158 to 159 °C

Q: With `CN(C)CC(=O)N1c2cc(Cl)ccc2N(C)S(=O)(=O)c2ccccc21` as the compound, how does the melting point read?
A: 175 to 176 °C

Q: With `N#CN=C(NCCSCc1nccs1)NCCSCc1nccs1` as the compound, how does the melting point read?
A: 66 to 68 °C

Q: With `CCCCC[C@H](O)/C=C/[C@@H]1[C@H]2Cc3cccc(OC(C)=O)c3C[C@H]2C[C@H]1O` as the compound, how does the melting point read?
A: 54 to 65 °C

Q: For `O=C(O)C=Cc1cn(CC(C(=O)c2ccc(Cl)cc2Cl)c2ccccc2)cn1` (stereo not given), which melting point is on record?
A: 229 to 231 °C

Q: For `CCCc1[nH]c2ccc(OC)cc2c1/C=C/C(=O)c1ccncc1`, which melting point is on record?
A: 221 to 224 °C

Q: Which melting point does the source give for `Cc1oc(-c2ccccc2)nc1CCOc1ccc(CC(C)(C(=O)O)c2ccccc2)cc1` (stereo not given) here?
A: 178 to 179 °C

Q: With `O=C(O)C(CNC(=O)C1Cc2ccccc2N1S(=O)(=O)c1ccc(-c2cccc(C(F)(F)F)c2)cc1)Cc1ccccc1` (stereo not given) as the compound, how does the melting point read?
A: 85 to 90 °C

Q: For `O=C1c2ccc(OCCN3CCOCC3)cc2C(=O)c2ccc(OCCN3CCOCC3)cc21`, which melting point is on record?
A: 200 to 201 °C

Q: Which melting point does the source give for `Cc1cc2c(F)c(Oc3cc(Cl)nc(N)n3)ccc2[nH]1` here?
A: 255 to 258 °C

Q: With `N[C@]1(C(=O)O)[C@H]2[C@@H](C[C@H]1OCc1ccccc1)[C@@H]2C(=O)O` as the compound, how does the melting point read?
A: > 250 °C

Q: With `NC(CN1C(=O)C2(COc3cc4c(cc32)OCO4)c2ccccc21)=NO` (stereo not given) as the compound, how does the melting point read?
A: 235 to 238 °C

Q: For `CC1(C)C2CCC1(CN1CN(CC34CCC(CC3)C4(C)C)CN(CC34CCC(CC3)C4(C)C)C1)CC2`, which melting point is on record?
A: 175 to 180 °C

Q: For `CCCCCCCCCCc1ccnc(C(=O)NCCCCC(=O)O)c1`, which melting point is on record?
A: 54 to 56 °C

Q: For `CC(C)c1ccc2nc3c(C(=O)NCCCCc4cccnc4)cccn3c(=O)c2c1`, which melting point is on record?
A: 129 to 130 °C

Q: With `C=CC(=O)c1cnc(N2CCC[C@H]2CO)nc1NCc1ccc(OC)c(Cl)c1` as the compound, how does the melting point read?
A: 113 to 115 °C

Q: With `CN(C)CCn1c(-c2cccc(C(F)(F)F)c2)cc2c1CCSC2` as the compound, how does the melting point read?
A: 88.5 to 90 °C

Q: With `O=S1CCC(c2ccccc2)(c2ccccc2)CC1` as the compound, how does the melting point read?
A: 122 °C

Q: For `COc1cc(Nc2nccc(-c3ccc(N)cc3)n2)cc(OC)c1OC`, which melting point is on record?
A: 195 °C

Q: Which melting point does the source give for `OC1CCc2ccc(Cl)cc2C1` (stereo not given) here?
A: 79 to 81 °C

Q: Which melting point does the source give for `NCCCNc1nccc(NC(N)=NCC(F)(F)F)n1` here?
A: 159 °C

Q: Which melting point does the source give for `CC(C)(C)c1ccc(-c2ccc3c(c2)C=C(C(=O)O)CCO3)cc1` here?
A: 259 to 261 °C

Q: Which melting point does the source give for `O=Cc1cc(C2CC2)nn1Cc1ccc(C(F)(F)F)cc1Cl` here?
A: 94 to 96 °C

Q: With `CON(C(=Cc1ccccc1)C(N)=O)c1ccccc1` as the compound, how does the melting point read?
A: 69 °C

Q: Which melting point does the source give for `O=C(O)C1CCc2ccc(O)cc2C1` (stereo not given) here?
A: 170 to 171 °C

Q: Which melting point does the source give for `C=CC(=O)CCC1=CC(=O)NC1=O` here?
A: 77 to 78 °C

Q: Which melting point does the source give for `O=C(O)[C@@H]1CCCN1C(=O)CCCS` here?
A: 157 to 158 °C

Q: Which melting point does the source give for `CC(C)Oc1cc(CCCOc2cc(CCC(=O)O)n(Cc3ccccc3)n2)n(Cc2ccc(Cl)cc2Cl)n1` here?
A: 123 to 126 °C

Q: For `Cn1nnnc1-c1cnc2ccc(F)cc2c1O`, which melting point is on record?
A: > 300 °C

Q: For `COc1ccc2cc(NCc3ccc(OCc4ccccc4)cc3)ccc2c1`, which melting point is on record?
A: 139 to 141 °C

Q: For `COc1cn(-c2cccc3cccnc23)nc(-c2ccnn2-c2ccccc2)c1=O`, which melting point is on record?
A: 189 to 192 °C

Q: With `CC(C)(C)Sc1cccc(C(F)(F)F)c1S(N)(=O)=O` as the compound, how does the melting point read?
A: 91 °C

Q: Which melting point does the source give for `O=C(O)/C=C/c1cc(OC2CCOCC2)nn1Cc1ccc(Cl)cc1Cl` here?
A: 191 to 192 °C

Q: Which melting point does the source give for `CCOc1ccc(C23CNCC2C3)cc1` (stereo not given) here?
A: 48 to 49 °C

Q: For `OC1CSC(Oc2cccnc2-c2ccco2)C(O)C1O` (stereo not given), which melting point is on record?
A: 184 °C

Q: Which melting point does the source give for `COc1ccccc1NC(=O)Nc1nc(Nc2ccccc2-c2ccccc2)nc(N(CCC(=O)O)Cc2ccc(C(F)(F)F)cc2)n1` here?
A: 125 to 128 °C

Q: With `N#Cc1[nH]c2ccccc2c1-c1ccccc1` as the compound, how does the melting point read?
A: 137 to 142 °C

Q: With `CC(=O)N1C(=O)N(N=Cc2cccnc2)Cc2cc(C(F)(C(F)(F)F)C(F)(F)F)ccc21` as the compound, how does the melting point read?
A: 160 to 162 °C

Q: With `CNC(=O)c1ccccc1N=C(NC(=O)c1ccccc1)SC` as the compound, how does the melting point read?
A: 193 to 195 °C

Q: For `COC(=O)c1cc(S(=O)(=O)Cl)cc(C(=O)OC)c1[N+](=O)[O-]`, which melting point is on record?
A: 124 to 125 °C

Q: With `O=S(=O)(c1ccccc1)c1ccc(N2CCNCC2)cn1` as the compound, how does the melting point read?
A: 126 to 127 °C

Q: For `CC(C)(C)C(=O)SCC1CCCCCCCSC[C@@H](C(=O)OCc2ccccc2)NC1=O` (stereo not given in full), which melting point is on record?
A: 135 to 137 °C

Q: With `COc1ccc(C)c(NC(=O)CCl)c1` as the compound, how does the melting point read?
A: 89 to 91 °C

Q: For `O=C1CCCc2nc3ccccc3c(NCc3ccccc3F)c21`, which melting point is on record?
A: 164 °C

Q: With `N#CC1(c2cccc(OCc3ccc4ccc(F)cc4c3)c2)CCOCC1` as the compound, how does the melting point read?
A: 106 to 107 °C

Q: For `Oc1ccc2c(c1)OC1(CCCCCC1)O2`, which melting point is on record?
A: 80 to 82 °C

Q: Which melting point does the source give for `CC(=O)N1CCN(c2ccc(-n3ccnc3)cc2)CC1` here?
A: 181 to 182 °C

Q: Which melting point does the source give for `Cc1oc(-c2ccccc2)nc1COc1ccc(Sc2nc(-c3ccccc3)c(CCC(=O)O)s2)cc1` here?
A: 121 to 122 °C

Q: With `CCCCCCCCCCN1CC(C(=O)OC)N(S(=O)(=O)c2ccc(-c3ccc(Br)cc3)cc2)CC1=O` (stereo not given) as the compound, how does the melting point read?
A: 117 to 118 °C

Q: For `O=C(O)CCCCNCc1cc2cc3c(cc2c2cc(OCc4ccccc4)ccc12)OCO3`, which melting point is on record?
A: 197 to 199 °C

Q: Which melting point does the source give for `CCCc1nc2c(N)nc3cc(OCCCN)ccc3c2n1CC(C)C` here?
A: 173 to 174 °C

Q: With `O=C(Nc1ccc(C2CC(F)(F)C2(F)F)cc1)Nc1nonc1-c1ccccc1` (stereo not given) as the compound, how does the melting point read?
A: 206 °C

Q: Which melting point does the source give for `CC1(C)C=Cc2cc(-c3nnnn3CCN3C(=O)c4ccccc4C3=O)ccc2O1` here?
A: 178 to 182 °C

Q: Which melting point does the source give for `CN(C(=O)c1cnn(C)c1C(=O)Nc1ccn2nc(N3CCOCC3)nc2c1)C1CC1` here?
A: 172 to 175 °C

Q: Which melting point does the source give for `CCCc1c(COCCOc2ccc(-c3nnn[nH]3)cc2)ccc(C(C)=O)c1O` here?
A: 170 to 172 °C

Q: With `Nc1nc(C2CCCCN2)ncc1-c1ccc(Cl)cc1Cl` (stereo not given) as the compound, how does the melting point read?
A: 169 °C

Q: For `COc1ccc(CNC(=O)c2ccc([N+](=O)[O-])cc2N)cc1`, which melting point is on record?
A: 129 to 131 °C
